Assay results reported in article PMC4858680, “A platinum-based hybrid drug design approach to circumvent acquired resistance to molecular targeted tyrosine kinase inhibitors” (Scientific Reports, 2016).
Read-outs that look alike come from different tables or passages of the source.

Legend:
Assay type in all cases: binding
[1] = molecular target: T1, TYK2(JHSdomain-pseudokinase) (Homo sapiens, UniProt P29597); conditions: for remaining binding at 10 µM: read-out: Percent control; for Percent control: 10 μM
T1 construct: TYK2(JHSdomain-pseudokinase); purchased DiscoveRx Corporation (KINOMEscan service)

[2] = molecular target: T2, TNK1 (Homo sapiens, UniProt Q13470); conditions: for remaining binding at 10 µM: read-out: Percent control; for Percent control: 10 μM
T2 construct: purchased DiscoveRx (KINOMEscan service)
T2 sequence (Q13470 1-666): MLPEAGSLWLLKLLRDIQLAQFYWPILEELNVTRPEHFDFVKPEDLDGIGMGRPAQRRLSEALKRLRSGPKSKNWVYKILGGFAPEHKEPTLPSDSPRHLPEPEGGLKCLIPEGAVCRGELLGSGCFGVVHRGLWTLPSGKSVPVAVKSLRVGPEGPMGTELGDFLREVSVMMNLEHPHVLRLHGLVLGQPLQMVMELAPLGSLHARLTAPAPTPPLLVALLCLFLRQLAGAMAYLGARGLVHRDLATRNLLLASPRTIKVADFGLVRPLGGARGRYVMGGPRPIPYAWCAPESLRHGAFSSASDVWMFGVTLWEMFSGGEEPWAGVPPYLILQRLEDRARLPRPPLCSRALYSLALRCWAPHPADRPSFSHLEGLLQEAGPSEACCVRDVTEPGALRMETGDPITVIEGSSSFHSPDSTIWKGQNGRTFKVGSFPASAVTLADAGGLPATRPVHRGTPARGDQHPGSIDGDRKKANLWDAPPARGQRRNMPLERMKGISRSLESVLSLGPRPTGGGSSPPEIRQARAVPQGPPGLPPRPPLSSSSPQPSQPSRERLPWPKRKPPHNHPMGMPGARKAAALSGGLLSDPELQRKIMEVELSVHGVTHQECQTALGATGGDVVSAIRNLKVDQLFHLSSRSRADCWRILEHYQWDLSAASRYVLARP

[3] = molecular target: T3, EPHA8 (Homo sapiens, UniProt P29322); conditions: for remaining binding at 10 µM: read-out: Percent control
T3 construct: purchased DiscoveRx KINOMEscan
T3 sequence (P29322 28-1005): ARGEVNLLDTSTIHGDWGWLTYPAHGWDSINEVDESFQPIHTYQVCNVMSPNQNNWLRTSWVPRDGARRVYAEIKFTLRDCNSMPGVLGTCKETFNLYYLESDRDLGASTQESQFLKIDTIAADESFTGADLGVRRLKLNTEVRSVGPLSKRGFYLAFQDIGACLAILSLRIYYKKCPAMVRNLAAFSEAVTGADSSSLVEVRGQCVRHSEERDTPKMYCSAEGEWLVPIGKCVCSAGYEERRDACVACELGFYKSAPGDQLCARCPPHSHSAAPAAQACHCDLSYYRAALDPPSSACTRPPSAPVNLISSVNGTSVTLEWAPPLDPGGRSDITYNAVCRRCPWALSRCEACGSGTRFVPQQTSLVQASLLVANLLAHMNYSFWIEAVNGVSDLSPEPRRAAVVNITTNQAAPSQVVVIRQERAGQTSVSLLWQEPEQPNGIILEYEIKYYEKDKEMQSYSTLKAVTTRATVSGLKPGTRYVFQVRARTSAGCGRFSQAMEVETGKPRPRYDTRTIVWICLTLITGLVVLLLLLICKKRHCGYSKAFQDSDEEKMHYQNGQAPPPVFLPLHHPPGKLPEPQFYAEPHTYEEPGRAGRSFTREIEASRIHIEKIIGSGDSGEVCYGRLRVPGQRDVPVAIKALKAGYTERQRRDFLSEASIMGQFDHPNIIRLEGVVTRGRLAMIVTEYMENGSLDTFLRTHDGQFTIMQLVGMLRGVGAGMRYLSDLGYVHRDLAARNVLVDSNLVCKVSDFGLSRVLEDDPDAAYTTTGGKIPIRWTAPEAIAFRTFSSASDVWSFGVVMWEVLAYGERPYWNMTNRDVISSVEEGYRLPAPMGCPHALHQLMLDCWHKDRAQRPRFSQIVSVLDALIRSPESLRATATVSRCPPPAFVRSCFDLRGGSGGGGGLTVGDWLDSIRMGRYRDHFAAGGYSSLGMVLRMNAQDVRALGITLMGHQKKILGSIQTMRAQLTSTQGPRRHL

[4] = molecular target: T4, BRK (Homo sapiens, UniProt Q13882); conditions: for remaining binding at 10 µM: read-out: Percent control; for Percent control: BRK, 10 μM
T4 construct: purchased DiscoveRx KINOMEscan

[5] = molecular target: T5, IGF1R (Homo sapiens, UniProt P08069); conditions: for remaining binding at 10 µM: read-out: Percent control
T5 construct: purchased DiscoveRx KINOMEscan

[6] = molecular target: T6, EPHB3 (Homo sapiens, UniProt P54753); conditions: for remaining binding at 10 µM: read-out: Percent control
T6 construct: purchased DiscoveRx KINOMEscan
T6 sequence (P54753 34-998): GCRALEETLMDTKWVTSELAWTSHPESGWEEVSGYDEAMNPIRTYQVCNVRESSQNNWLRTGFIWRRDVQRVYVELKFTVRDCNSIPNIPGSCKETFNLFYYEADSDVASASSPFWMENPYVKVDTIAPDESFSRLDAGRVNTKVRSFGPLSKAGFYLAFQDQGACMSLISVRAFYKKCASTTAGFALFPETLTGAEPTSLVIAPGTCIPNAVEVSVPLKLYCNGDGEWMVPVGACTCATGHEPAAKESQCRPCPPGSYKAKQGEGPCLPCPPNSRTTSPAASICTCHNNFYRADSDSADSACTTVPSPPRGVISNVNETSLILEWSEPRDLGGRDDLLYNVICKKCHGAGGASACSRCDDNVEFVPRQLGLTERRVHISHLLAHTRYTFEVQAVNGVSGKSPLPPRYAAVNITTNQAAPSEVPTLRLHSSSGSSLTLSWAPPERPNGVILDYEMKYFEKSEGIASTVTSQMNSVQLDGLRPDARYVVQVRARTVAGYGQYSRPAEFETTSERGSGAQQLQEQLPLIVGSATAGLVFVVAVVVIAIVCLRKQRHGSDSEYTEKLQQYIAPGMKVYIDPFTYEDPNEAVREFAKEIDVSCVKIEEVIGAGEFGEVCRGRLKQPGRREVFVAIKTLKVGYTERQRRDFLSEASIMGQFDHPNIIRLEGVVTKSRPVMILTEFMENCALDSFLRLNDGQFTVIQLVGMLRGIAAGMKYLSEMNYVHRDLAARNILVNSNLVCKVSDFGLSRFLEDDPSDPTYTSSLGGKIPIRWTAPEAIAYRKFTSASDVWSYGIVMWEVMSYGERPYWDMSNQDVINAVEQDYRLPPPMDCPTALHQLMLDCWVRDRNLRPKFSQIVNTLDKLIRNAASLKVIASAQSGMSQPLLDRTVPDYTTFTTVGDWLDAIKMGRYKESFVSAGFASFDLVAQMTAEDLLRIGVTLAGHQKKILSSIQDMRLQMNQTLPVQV

[7] = molecular target: T7, JAK2(JH1domain-catalytic) (Homo sapiens, UniProt O60674); conditions: for remaining binding at 10 µM: read-out: Percent control; for Percent control: 10 μM
T7 construct: JAK2(JH1domain-catalytic); purchased DiscoveRx KINOMEscan
T7 sequence (O60674 840-1132 limits assumed): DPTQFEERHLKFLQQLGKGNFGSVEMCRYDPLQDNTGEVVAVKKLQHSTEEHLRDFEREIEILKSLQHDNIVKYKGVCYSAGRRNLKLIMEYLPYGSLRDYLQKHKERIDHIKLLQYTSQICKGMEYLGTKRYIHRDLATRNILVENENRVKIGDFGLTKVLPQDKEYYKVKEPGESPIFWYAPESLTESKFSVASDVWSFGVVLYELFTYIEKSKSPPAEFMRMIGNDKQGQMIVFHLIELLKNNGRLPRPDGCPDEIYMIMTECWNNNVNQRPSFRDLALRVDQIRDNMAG

T5 sequence (P08069 31-1367): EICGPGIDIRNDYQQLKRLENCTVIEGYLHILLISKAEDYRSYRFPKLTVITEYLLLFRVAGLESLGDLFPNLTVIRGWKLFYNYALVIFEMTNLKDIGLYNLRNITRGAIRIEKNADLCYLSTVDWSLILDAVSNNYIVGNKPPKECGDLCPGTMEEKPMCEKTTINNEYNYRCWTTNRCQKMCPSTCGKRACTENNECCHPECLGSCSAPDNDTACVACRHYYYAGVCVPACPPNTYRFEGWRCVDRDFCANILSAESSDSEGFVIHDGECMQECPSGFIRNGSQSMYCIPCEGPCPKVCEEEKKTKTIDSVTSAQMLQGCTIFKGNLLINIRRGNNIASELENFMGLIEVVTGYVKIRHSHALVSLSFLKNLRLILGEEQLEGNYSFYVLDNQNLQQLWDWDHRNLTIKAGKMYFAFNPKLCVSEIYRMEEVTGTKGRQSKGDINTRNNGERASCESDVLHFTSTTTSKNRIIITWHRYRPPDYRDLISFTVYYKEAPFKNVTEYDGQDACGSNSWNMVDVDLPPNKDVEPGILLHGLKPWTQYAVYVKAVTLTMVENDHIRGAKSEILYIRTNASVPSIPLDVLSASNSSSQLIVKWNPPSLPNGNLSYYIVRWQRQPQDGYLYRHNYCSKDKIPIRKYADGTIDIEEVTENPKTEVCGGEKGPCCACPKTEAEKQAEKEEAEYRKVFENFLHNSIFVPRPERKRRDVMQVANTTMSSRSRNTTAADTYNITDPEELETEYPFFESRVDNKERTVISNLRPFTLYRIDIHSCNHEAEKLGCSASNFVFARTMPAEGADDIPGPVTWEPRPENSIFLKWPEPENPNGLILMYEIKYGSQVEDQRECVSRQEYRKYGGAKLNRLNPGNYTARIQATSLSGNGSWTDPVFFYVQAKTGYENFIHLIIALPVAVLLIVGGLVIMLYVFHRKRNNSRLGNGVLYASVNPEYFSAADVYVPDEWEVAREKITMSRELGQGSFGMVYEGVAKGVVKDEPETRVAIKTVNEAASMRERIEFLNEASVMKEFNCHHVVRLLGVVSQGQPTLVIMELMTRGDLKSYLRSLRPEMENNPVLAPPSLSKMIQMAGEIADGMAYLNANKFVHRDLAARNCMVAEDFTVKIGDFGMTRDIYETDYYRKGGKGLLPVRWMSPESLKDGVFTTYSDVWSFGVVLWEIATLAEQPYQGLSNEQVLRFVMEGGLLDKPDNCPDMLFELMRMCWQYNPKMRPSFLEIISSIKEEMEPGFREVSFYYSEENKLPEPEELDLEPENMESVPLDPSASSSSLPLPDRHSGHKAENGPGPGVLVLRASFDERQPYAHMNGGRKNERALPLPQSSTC
T4 sequence (Q13882 whole entry): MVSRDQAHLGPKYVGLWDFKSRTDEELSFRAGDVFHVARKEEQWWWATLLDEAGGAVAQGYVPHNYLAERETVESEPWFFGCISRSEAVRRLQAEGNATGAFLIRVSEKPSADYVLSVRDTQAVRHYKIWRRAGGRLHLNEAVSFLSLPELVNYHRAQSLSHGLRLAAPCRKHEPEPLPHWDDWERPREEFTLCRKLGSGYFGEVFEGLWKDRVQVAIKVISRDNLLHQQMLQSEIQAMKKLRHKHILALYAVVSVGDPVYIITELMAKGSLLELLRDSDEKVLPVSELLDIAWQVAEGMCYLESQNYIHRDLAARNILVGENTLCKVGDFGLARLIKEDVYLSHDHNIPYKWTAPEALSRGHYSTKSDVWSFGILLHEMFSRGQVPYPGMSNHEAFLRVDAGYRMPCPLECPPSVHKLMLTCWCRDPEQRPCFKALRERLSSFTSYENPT
T1 sequence (P29597 589-875 limits assumed): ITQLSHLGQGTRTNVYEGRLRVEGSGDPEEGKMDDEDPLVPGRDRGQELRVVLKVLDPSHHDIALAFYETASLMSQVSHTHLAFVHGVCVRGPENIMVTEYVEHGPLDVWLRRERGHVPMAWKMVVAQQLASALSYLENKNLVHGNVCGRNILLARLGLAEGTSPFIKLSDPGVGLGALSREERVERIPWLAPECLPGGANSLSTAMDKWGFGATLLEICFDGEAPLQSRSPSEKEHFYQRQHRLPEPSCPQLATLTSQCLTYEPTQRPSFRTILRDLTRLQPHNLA

Compound | remaining binding at 10 µM [1] [%] | remaining binding at 10 µM [2] [%] | remaining binding at 10 µM [3] [%] | remaining binding at 10 µM [4] [%] | remaining binding at 10 µM [5] [%] | remaining binding at 10 µM [6] [%] | remaining binding at 10 µM [7] [%] | Percent control [1] [%] | Percent control [2] [%] | Percent control ([3]; EPHA8, 10 μM) [%] | Percent control [4] [%] | Percent control ([5]; IGF1R, 10 μM) [%] | Percent control ([6]; EPHB3, 10 μM) [%] | Percent control [7] [%] | remaining binding at 10 µM ([3]; EPHA8, 10 μM) [%] | remaining binding at 10 µM ([5]; IGF1R, 10 μM) [%] | remaining binding at 10 µM ([6]; EPHB3, 10 μM) [%]
C#Cc1cccc(Nc2ncnc3cc(OCCOC)c(OCCOC)cc23)c1 [Erlotinib] | 19.4 | 5.9 | 8.6 | 100 | 100 | 100 | 27 |  |  |  |  |  |  |  |  |  | 
Cc1ccc(NC(=O)c2ccc(CN3CCN(C)CC3)cc2)cc1Nc1nccc(-c2cccnc2)[n+]1[Pt-2]1([Cl])[NH2+]C2CCCCC2[NH2+]1 (stereo not drawn) [1b, oxaliplatin-imatinib] |  |  |  |  |  |  |  | 100 | 90 | 68 | 93 | 100 | 87 | 100 |  |  | 
COc1cc2c(Nc3ccc(Br)cc3F)ncnc2cc1OCC1CCN(C)CC1 [Vandetanib, reference compound] | 100 | 100 |  | 1.6 |  |  | 100 |  |  |  |  |  |  |  | 0.9 | 100 | 100
COc1cc2c(Nc3ccc(Br)cc3F)[n+]([Pt-2]3([Cl])[NH2+]C4CCCCC4[NH2+]3)cnc2cc1OCC1CCN(C)CC1 (stereo not drawn) [3b, oxaliplatin-vandetanib] |  |  |  |  |  |  |  | 100 | 90 | 6.8 | 27 | 100 | 100 | 100 |  |  | 
C#Cc1cccc(Nc2c3cc(OCCOC)c(OCCOC)cc3nc[n+]2[Pt@SP2-2]([NH3+])([NH3+])[Cl])c1 [2a, cisplatin-erlotinib] |  |  |  |  |  |  |  | 100 | 85 | 56 | 89 | 86 | 88 | 46 |  |  | 
Cc1ccc(NC(=O)c2ccc(CN3CCN(C)CC3)cc2)cc1Nc1nccc(-c2cccnc2)n1 [Imatinib, reference compound] | 46.5 |  |  |  |  |  | 100 |  | 100 | 12.3 | 100 | 100 | 100 |  |  |  | 
